Assay results taken from paper PMC12163085, “Targeting transcription factors through an IMiD independent zinc finger domain” (EMBO Molecular Medicine, 2025).

Experiments:
SNU387 = test: cells; set-up: species or system SNU398 and SNU387 isogenic lines; CellTiter-Glo luminescence viability dose response in 384-well plates, nonlinear regression; conditions: Homo sapiens, SNU-387; 72 h cell viability; read-out: EC50 / SNU387Lo
Protocol: (§1) Empty vector, SALL4A, and SALL4B expressing isogenic cell lines were generated by transducing the SALL4 negative hepatocellular carcinoma SNU-387 cells with empty vector, SALL4A, or SALL4B FUW-Luc-mCh-puro lentiviral constructs. Cells were plated in 50 μl of RPMI culture media in 384-well white flat-bottom plates (Corning) and incubated at 37 °C in a humidified atmosphere of 5% CO2 overnight. Cell numbers per well were 1500 for SNU-398, and 750 for SNU-387 and SNU-387 isogenic lines. After overnight incubation, varying concentrations of compounds 1–80 were added to cells with multichannel electronic pipettes (Rainin). Cells were then incubated for 72 h at 37 °C in a humidified atmosphere of 5% CO2 before 10 μl of CellTiter-Glo reagent was added to the wells with the MultiFlo Microplate Dispenser (BioTek). Cells were incubated at room temperature for a minimum of 10 min, after which luminescence readings were recorded by an Infinite M1000 Microplate Reader (Tecan). Each data point was performed in n = 3 independent cell cultures. IC50 of compounds were determined using nonlinear regression fitting from Prism (GraphPad). Cell-based screening was next employed to evaluate the growth inhibitory activity of the test compounds against SALL4 expressing malignant cells. SNU398, a liver cancer cell line with high endogenous levels of SALL4, and SNU387, a liver cancer cell line with undetectable levels of SALL4, were used for comparison. Cells were incubated with the test compound at 1 μM for 72 h, after which cell viability was assessed. […] Next, we carried out dose escalation studies on all SH compounds to deduce their EC50 values on SNU387 and SNU398. In order to interrogate the effects of compounds targeting SALL4, we created isogenic cells by overexpressing SALL4A (SNU387-TgSALL4A) or SALL4B (SNU387-TgSALL4B) in SNU387 cells (Tan et al, [2019]) (Fig. 2B, and Dataset EV4). The EC50 of SH2, SH6, and SH7 in SALL4 high SNU398 cells were 0.4 μM, 0.5 μM, and 0.3 μM, respectively. In contrast, the EC50 values of the same compounds were more than 10 μM on SALL4 low SNU387 cells.

SNU398 = test: cells; set-up: species or system SNU387, SNU398 and SNU387 isogenic lines; CellTiter-Glo luminescence viability dose response in 384-well plates, nonlinear regression; conditions: Homo sapiens, SNU-398; 72 h cell viability; read-out: EC50 / SNU398Hi
Protocol: as §1

| SMILES | EC50 (SNU387) [µM] | EC50 (SNU398) [µM] |
| --- | --- | --- |
| COc1cc(Nc2ncccc2/C=C/C(=O)Nc2ccccc2N)cc(OC)c1OC [SH1] | ~30 | ~3 |
| COc1cc(Nc2ncccc2/C=C/C(=O)Nc2cc(C)ccc2N)cc(OC)c1OC [SH3] | > 30 | ~1.5 |
| COc1cc(Nc2ncccc2/C=C/C(=O)Nc2cc(C)c(C)cc2N)cc(OC)c1OC [SH4] | > 30 | ~2 |
| COc1cc(Nc2ncccc2/C=C/C(=O)Nc2cc(F)ccc2N)cc(OC)c1OC [SH5] | > 30 | ~2.5 |
| COc1cc(Nc2ncccc2/C=C/C(=O)NO)cc(OC)c1OC [SH8] | > 30 | > 30 |
| COc1ccc(Nc2ncccc2/C=C/C(=O)Nc2ccccc2N)cc1 [SH9] | > 30 | ~25 |
| COc1ccc(Nc2ncccc2/C=C/C(=O)Nc2cc(OC)ccc2N)cc1 [SH10] | > 30 | ~2.5 |
| COc1ccc(Nc2ncccc2/C=C/C(=O)Nc2cc(C)ccc2N)cc1 [SH11] | ~10 | ~3 |
| COc1ccc(Nc2ncccc2/C=C/C(=O)Nc2cc(C)c(C)cc2N)cc1 [SH12] | > 30 | ~25 |
| COc1ccc(Nc2ncccc2/C=C/C(=O)Nc2cc(Cl)ccc2N)cc1 [SH14] | ~25 | ~7 |
| COc1ccc(Nc2ncccc2/C=C/C(=O)Nc2cc(Cl)c(Cl)cc2N)cc1 [SH15] | > 30 | ~20 |
| COc1ccc(Nc2ncccc2/C=C/C(=O)NO)cc1 [SH16] | > 30 | > 30 |
| Nc1ccccc1NC(=O)/C=C/c1cccnc1Nc1ccc(F)cc1 [SH17] | > 30 | ~30 |
| COc1ccc(N)c(NC(=O)/C=C/c2cccnc2Nc2ccc(F)cc2)c1 [SH18] | > 30 | ~2 |
| Cc1cc(N)c(NC(=O)/C=C/c2cccnc2Nc2ccc(F)cc2)cc1C [SH20] | > 30 | ~12 |
| Nc1ccc(F)cc1NC(=O)/C=C/c1cccnc1Nc1ccc(F)cc1 [SH21] | > 30 | ~25 |
| Nc1ccc(Cl)cc1NC(=O)/C=C/c1cccnc1Nc1ccc(F)cc1 [SH22] | ~30 | ~15 |
| Nc1cc(Cl)c(Cl)cc1NC(=O)/C=C/c1cccnc1Nc1ccc(F)cc1 [SH23] | ~25 | ~12 |
| Nc1ccccc1NC(=O)/C=C/c1cccnc1Nc1ccc(C(F)(F)F)cc1 [SH25] | > 30 | 30 |
| COc1ccc(N)c(NC(=O)/C=C/c2cccnc2Nc2ccc(C(F)(F)F)cc2)c1 [SH26] | ~12 | ~6 |
| Cc1ccc(N)c(NC(=O)/C=C/c2cccnc2Nc2ccc(C(F)(F)F)cc2)c1 [SH27] | > 30 | ~12 |
| Cc1cc(N)c(NC(=O)/C=C/c2cccnc2Nc2ccc(C(F)(F)F)cc2)cc1C [SH28] | ~25 | ~12 |
| Nc1ccc(F)cc1NC(=O)/C=C/c1cccnc1Nc1ccc(C(F)(F)F)cc1 [SH29] | > 30 | ~12 |

| SMILES | EC50 (SNU387) [µM] | EC50 (SNU398) [µM] |
| --- | --- | --- |
| Nc1ccc(Cl)cc1NC(=O)/C=C/c1cccnc1Nc1ccc(C(F)(F)F)cc1 [SH30] | ~30 | ~12 |
| Nc1cc(Cl)c(Cl)cc1NC(=O)/C=C/c1cccnc1Nc1ccc(C(F)(F)F)cc1 [SH31] | ~14 | ~10 |
| O=C(/C=C/c1cccnc1Nc1ccc(C(F)(F)F)cc1)NO [SH32] | > 30 | ~8 |
| Nc1ccccc1NC(=O)/C=C/c1cccnc1Nc1ccc(Cl)cc1 [SH33] | > 30 | ~20 |
| COc1ccc(N)c(NC(=O)/C=C/c2cccnc2Nc2ccc(Cl)cc2)c1 [SH34] | ~5 | ~3 |
| Cc1ccc(N)c(NC(=O)/C=C/c2cccnc2Nc2ccc(Cl)cc2)c1 [SH35] | ~20 | ~9 |
| Cc1cc(N)c(NC(=O)/C=C/c2cccnc2Nc2ccc(Cl)cc2)cc1C [SH36] | > 30 | ~17 |
| Nc1ccc(F)cc1NC(=O)/C=C/c1cccnc1Nc1ccc(Cl)cc1 [SH37] | > 30 | ~17 |
| Nc1ccc(Cl)cc1NC(=O)/C=C/c1cccnc1Nc1ccc(Cl)cc1 [SH38] | > 30 | ~15 |
| Nc1cc(Cl)c(Cl)cc1NC(=O)/C=C/c1cccnc1Nc1ccc(Cl)cc1 [SH39] | ~25 | ~16 |
| O=C(/C=C/c1cccnc1Nc1ccc(Cl)cc1)NO [SH40] | > 30 | ~15 |
| COc1cc(Nc2ncccc2C(=O)Nc2ccccc2N)cc(OC)c1OC [SH41] | > 30 | > 30 |
| COc1cc(Nc2ncccc2C(=O)Nc2cc(C)ccc2N)cc(OC)c1OC [SH43] | ~30 | ~12 |
| COc1cc(Nc2ncccc2C(=O)Nc2cc(C)c(C)cc2N)cc(OC)c1OC [SH44] | > 30 | > 30 |
| COc1cc(Nc2ncccc2C(=O)Nc2cc(F)ccc2N)cc(OC)c1OC [SH45] | > 30 | > 30 |
| COc1cc(Nc2ncccc2C(=O)Nc2cc(Cl)ccc2N)cc(OC)c1OC [SH46] | > 30 | > 30 |
| COc1cc(Nc2ncccc2C(=O)Nc2cc(Cl)c(Cl)cc2N)cc(OC)c1OC [SH47] | > 30 | ~18 |
| COc1cc(Nc2ncccc2C(=O)NO)cc(OC)c1OC [SH48] | > 30 | > 30 |
| COc1ccc(Nc2ncccc2C(=O)Nc2ccccc2N)cc1 [SH49] | > 30 | > 30 |
| COc1ccc(Nc2ncccc2C(=O)Nc2cc(OC)ccc2N)cc1 [SH50] | > 30 | > 30 |
| COc1ccc(Nc2ncccc2C(=O)Nc2cc(C)ccc2N)cc1 [SH51] | > 30 | > 30 |
| COc1ccc(Nc2ncccc2C(=O)Nc2cc(C)c(C)cc2N)cc1 [SH52] | > 30 | > 30 |
| COc1ccc(Nc2ncccc2C(=O)Nc2cc(F)ccc2N)cc1 [SH53] | > 30 | > 30 |

| SMILES | EC50 (SNU387) [µM] | EC50 (SNU398) [µM] |
| --- | --- | --- |
| COc1ccc(Nc2ncccc2C(=O)Nc2cc(Cl)ccc2N)cc1 [SH54] | > 30 | > 30 |
| COc1ccc(Nc2ncccc2C(=O)Nc2cc(Cl)c(Cl)cc2N)cc1 [SH55] | > 30 | ~25 |
| COc1ccc(Nc2ncccc2C(=O)NO)cc1 [SH56] | > 30 | > 30 |
| Nc1ccccc1NC(=O)c1cccnc1Nc1ccc(F)cc1 [SH57] | > 30 | > 30 |
| COc1ccc(N)c(NC(=O)c2cccnc2Nc2ccc(F)cc2)c1 [SH58] | > 30 | > 30 |
| Cc1ccc(N)c(NC(=O)c2cccnc2Nc2ccc(F)cc2)c1 [SH59] | > 30 | > 30 |
| Cc1cc(N)c(NC(=O)c2cccnc2Nc2ccc(F)cc2)cc1C [SH60] | > 30 | > 30 |
| Nc1ccc(Cl)cc1NC(=O)c1cccnc1Nc1ccc(F)cc1 [SH62] | > 30 | ~25 |
| Nc1cc(Cl)c(Cl)cc1NC(=O)c1cccnc1Nc1ccc(F)cc1 [SH63] | > 30 | ~20 |
| O=C(NO)c1cccnc1Nc1ccc(F)cc1 [SH64] | > 30 | > 30 |
| Nc1ccccc1NC(=O)c1cccnc1Nc1ccc(C(F)(F)F)cc1 [SH65] | > 30 | ~25 |
| COc1ccc(N)c(NC(=O)c2cccnc2Nc2ccc(C(F)(F)F)cc2)c1 [SH66] | > 30 | ~25 |
| Cc1ccc(N)c(NC(=O)c2cccnc2Nc2ccc(C(F)(F)F)cc2)c1 [SH67] | > 30 | > 30 |
| Cc1cc(N)c(NC(=O)c2cccnc2Nc2ccc(C(F)(F)F)cc2)cc1C [SH68] | > 30 | > 30 |
| Nc1ccc(F)cc1NC(=O)c1cccnc1Nc1ccc(C(F)(F)F)cc1 [SH69] | > 30 | ~16 |
| Nc1ccc(Cl)cc1NC(=O)c1cccnc1Nc1ccc(C(F)(F)F)cc1 [SH70] | > 30 | ~25 |
| Nc1cc(Cl)c(Cl)cc1NC(=O)c1cccnc1Nc1ccc(C(F)(F)F)cc1 [SH71] | ~25 | ~16 |
| O=C(NO)c1cccnc1Nc1ccc(C(F)(F)F)cc1 [SH72] | > 30 | ~25 |
| Nc1ccccc1NC(=O)c1cccnc1Nc1ccc(Cl)cc1 [SH73] | > 30 | ~30 |
| COc1ccc(N)c(NC(=O)c2cccnc2Nc2ccc(Cl)cc2)c1 [SH74] | > 30 | ~20 |
| Cc1ccc(N)c(NC(=O)c2cccnc2Nc2ccc(Cl)cc2)c1 [SH75] | > 30 | > 30 |
